In PubChem BioAssay AID192 (DTP/NCI, 2004) one finds T/C data, which are given here for 17 molecules.

The assay relates to BDF1 mice, B16 melanoma ip, median survival T/C. The assay is described as follows: NCI In Vivo Anticancer Drug Screen. Data for tumor model B16 Melanoma (intraperitoneal) in B6D2F1 (BDF1) mice. To be noted: endpoint: median survival time, higher = longer survival. The method, boiled down:
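Mice with transplantable tumors; drug vs vehicle groups; endpoint survival or tumor size; value = T/C.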

[1] abbreviates: dose: 12.5 mg/kg/injection, schedule: Q01DX009 (ip), vehicle: Klucel (hydroxypropylcellulose) (HPC).
The mark [2] stands for this setting: dose: 12.5 mg/kg/injection, schedule: Q04DX003 (ip), vehicle: saline.
The mark [3] stands for this setting: dose: 25.0 mg/kg/injection, schedule: Q01DX009 (ip), vehicle: Klucel (hydroxypropylcellulose) (HPC).
The mark [4] stands for this setting: dose: 25.0 mg/kg/injection, schedule: Q04DX003 (ip), vehicle: saline.
Setting [5] is: dose: 50.0 mg/kg/injection, schedule: Q01DX009 (ip), vehicle: Klucel (hydroxypropylcellulose) (HPC).
Setting [6] is: dose: 50.0 mg/kg/injection, schedule: Q04DX003 (ip), vehicle: saline.
Setting [7] is: dose: 100.0 mg/kg/injection, schedule: Q01DX009 (ip), vehicle: Klucel (hydroxypropylcellulose) (HPC).
The mark [8] stands for this setting: dose: 200.0 mg/kg/injection, schedule: Q01DX009 (ip), vehicle: Klucel (hydroxypropylcellulose) (HPC).
Setting [9] is: dose: 50.0 mg/kg/injection, schedule: Q01DX009 (ip), vehicle: saline with Tween-80.
The mark [10] stands for this setting: dose: 100.0 mg/kg/injection, schedule: Q01DX009 (ip), vehicle: saline with Tween-80.
Setting [11] is: dose: 200.0 mg/kg/injection, schedule: Q01DX009 (ip), vehicle: saline with Tween-80.
[12] abbreviates: dose: 100.0 mg/kg/injection, schedule: Q04DX003 (ip), vehicle: Klucel (hydroxypropylcellulose) (HPC).

Where “and” joins values, the source holds several entries; their conditions need not be identical. Identical values can stand only once. Toxic doses and inconclusive results are not listed. Square brackets hold non-standard residues; d marks the D form. Peptide text beside a SMILES is read from it. * marks the point of attachment. ξ: configuration not given here. ξF = NC(Cc1ccccc1)C(=O)O; ClAc = O=C(CCl)*

On to `CC1NC(=O)COC1c1ccccc1` (stereo not drawn), for which the T/C was 95 % of control under setting [1]; 95 % of control under setting [2]; 95 % of control under setting [3]; 92 % of control under setting [4]; 102 % of control under setting [5]; 97 % of control under setting [6]. Moreover, the T/C under setting [7] is 97 % of control; the T/C (dose: 100.0 mg/kg/injection, schedule: Q04DX003 (ip), vehicle: saline) is 95 % of control; the T/C (dose: 200.0 mg/kg/injection, schedule: Q04DX003 (ip), vehicle: saline) was 97 % of control.
In the case of `O=C(Nc1cccc(C(F)(F)F)c1)Nc1nccs1`, the T/C under setting [3] was 93 % of control, the T/C under setting [5] was 95 % of control, the T/C under setting [7] is 100 % of control and the T/C under setting [8] was 101 % of control.
With `O=C1C=CC(=O)O1` (tested in a mixture with another compound), the T/C was 124 % of control under setting [1]; 111 % of control under setting [2]; 97 % of control (dose: 18.75 mg/kg/injection, schedule: Q04DX003 (ip), vehicle: Klucel (hydroxypropylcellulose) (HPC)); 96 % of control and 121 % of control under setting [4]; 150 % of control (dose: 37.5 mg/kg/injection, schedule: Q04DX003 (ip), vehicle: Klucel (hydroxypropylcellulose) (HPC)); 159 % of control under setting [5]. The T/C under setting [6] was 120 % of control and 121 % of control; the T/C (dose: 75.0 mg/kg/injection, schedule: Q04DX003 (ip), vehicle: Klucel (hydroxypropylcellulose) (HPC)) was 161 % of control; the T/C under setting [7] is 150 % of control; the T/C (dose: 150.0 mg/kg/injection, schedule: Q04DX003 (ip), vehicle: Klucel (hydroxypropylcellulose) (HPC)) is 108 % of control and 208 % of control; the T/C (dose: 200.0 mg/kg/injection, schedule: Q01DX009 (ip), vehicle: other) is 104 % of control; the T/C (dose: 300.0 mg/kg/injection, schedule: Q04DX003 (ip), vehicle: Klucel (hydroxypropylcellulose) (HPC)) was 152 % of control and 184 % of control. For the same molecule, the T/C (dose: 400.0 mg/kg/injection, schedule: Q04DX003 (ip), vehicle: saline) was 101 % of control.
In the case of `O=C1C(Br)=C(Br)C(=O)C1(Br)Br`, the T/C by setting is: (dose: 1.56 mg/kg/injection, schedule: Q01DX009 (ip), vehicle: saline) 100 % of control; (dose: 3.13 mg/kg/injection, schedule: Q01DX009 (ip), vehicle: saline) 105 % of control; (dose: 3.13 mg/kg/injection, schedule: Q04DX003 (ip), vehicle: saline with Tween-80) 94 % of control; (dose: 6.25 mg/kg/injection, schedule: Q01DX009 (ip), vehicle: saline) 102 % of control; (dose: 6.25 mg/kg/injection, schedule: Q04DX003 (ip), vehicle: saline with Tween-80) 89 % of control.
As to `CC(N)(Cc1ccc(O)c(O)c1)C(=O)O` (stereo not drawn), the T/C reads like this: (dose: 50.0 mg/kg/injection, schedule: Q01DX009 (ip), vehicle: saline) 115 % of control; (dose: 100.0 mg/kg/injection, schedule: Q01DX009 (ip), vehicle: saline) 100 % of control; (dose: 200.0 mg/kg/injection, schedule: Q01DX009 (ip), vehicle: saline) 107 % of control; (dose: 400.0 mg/kg/injection, schedule: Q01DX009 (ip), vehicle: saline) 110 % of control.
Regarding `CC(C)(C)c1cc([N+](=O)[O-])cc(C(C)(C)C)c1O`, the T/C is 95 % of control under setting [3], 93 % of control under setting [5] and 95 % of control under setting [7].
In the case of `COc1cc2c(cc1OC)C(CNC(=O)/C=C/c1ccccc1)C2` (stereo not drawn), the T/C under setting [7] is 122 % of control; the T/C under setting [8] is 97 % of control; the T/C (dose: 400.0 mg/kg/injection, schedule: Q01DX009 (ip), vehicle: Klucel (hydroxypropylcellulose) (HPC)) was 94 % of control.
Consider `O=C(CCl)NCC(=O)NC(Cc1ccccc1)C(=O)O` (stereo not drawn) (ClAc-Gly-[ξF]-OH), for which the T/C is, setting by setting: under setting [9], 103 % of control; under setting [10], 100 % of control; under setting [11], 93 % of control.
`CO[C@H](C)[C@@](O)(C(=O)OCC1=CCN2CCC[C@@H]12)C(C)C`: the T/C is, setting by setting: (dose: 10.0 mg/kg/injection, schedule: Q01DX009 (ip), vehicle: saline) 114 % of control; (dose: 20.0 mg/kg/injection, schedule: Q01DX009 (ip), vehicle: saline) 104 % of control; (dose: 40.0 mg/kg/injection, schedule: Q01DX009 (ip), vehicle: saline) 100 % of control; (dose: 80.0 mg/kg/injection, schedule: Q01DX009 (ip), vehicle: saline) 95 % of control.
As for `CCN(CC)C1CC(O[C@H]2C[C@](O)(C(C)=O)Cc3c(O)c4c(c(O)c32)C(=O)c2c(OC)cccc2C4=O)OC(C)C1O` (stereo partly drawn), the T/C was 113 % of control (dose: 0.25 mg/kg/injection, schedule: Q01DX009 (ip), vehicle: water) and 119 % of control (dose: 0.5 mg/kg/injection, schedule: Q01DX009 (ip), vehicle: water).
As for `CC(C)CNN(CC(C)C)C(N)=O`, the T/C under setting [10] was 111 % of control and the T/C under setting [11] is 86 % of control.
For the molecule `CC12CCC(OC3OC(CO)C(OC4OC(CO)C(O)C(O)C4O)C(O)C3O)CC1CCC1C2CCC2(C)C(C3=CC(=O)OC3)CCC12O` (stereo not drawn), the T/C (dose: 6.0 mg/kg/injection, schedule: Q01DX009 (ip), vehicle: saline) is 102 % of control; the T/C (dose: 12.0 mg/kg/injection, schedule: Q01DX009 (ip), vehicle: saline) was 114 % of control; the T/C (dose: 24.0 mg/kg/injection, schedule: Q01DX009 (ip), vehicle: saline) is 102 % of control; the T/C (dose: 48.0 mg/kg/injection, schedule: Q01DX009 (ip), vehicle: saline) was 92 % of control.
Regarding `ClCCCCCCCCCCCl`, the T/C by setting is: under setting [1], 111 % of control; under setting [3], 100 % of control; (dose: 25.0 mg/kg/injection, schedule: Q04DX003 (ip), vehicle: Klucel (hydroxypropylcellulose) (HPC)) 100 % of control; under setting [5], 95 % of control; (dose: 50.0 mg/kg/injection, schedule: Q04DX003 (ip), vehicle: Klucel (hydroxypropylcellulose) (HPC)) 100 % of control; under setting [12], 104 % of control.
As for `COc1ccc2c(Nc3ccc(NS(C)(=O)=O)cc3)c3ccccc3nc2c1`, the T/C is, setting by setting: (dose: 1.87 mg/kg/injection, schedule: Q01DX009 (ip), vehicle: saline with Tween-80) 163 % of control; (dose: 2.5 mg/kg/injection, schedule: Q01DX009 (ip), vehicle: saline with Tween-80) 150 % of control; (dose: 3.75 mg/kg/injection, schedule: Q01DX009 (ip), vehicle: saline with Tween-80) 163 % of control; (dose: 5.0 mg/kg/injection, schedule: Q01DX009 (ip), vehicle: saline with Tween-80) 161 % of control; (dose: 5.3 mg/kg/injection, schedule: Q01DX009 (ip), vehicle: saline with Tween-80) 188 % of control; (dose: 7.5 mg/kg/injection, schedule: Q01DX009 (ip), vehicle: saline with Tween-80) 193 % of control. Also, the T/C by setting is: (dose: 8.0 mg/kg/injection, schedule: Q01DX009 (ip), vehicle: saline with Tween-80) 188 % of control; (dose: 12.0 mg/kg/injection, schedule: Q01DX009 (ip), vehicle: saline with Tween-80) 188 % of control; (dose: 12.5 mg/kg/injection, schedule: Q01DX009 (ip), vehicle: saline) 172 % of control; (dose: 50.0 mg/kg/injection, schedule: Q01DX001 (ip), vehicle: saline sonified) 175 % of control; (dose: 100.0 mg/kg/injection, schedule: Q01DX001 (ip), vehicle: saline sonified) 194 % of control.
With `Cc1ccc(C(=O)C(c2ccccc2)C(Cl)c2ccccc2)cc1` (stereo not drawn), the T/C was 102 % of control under setting [12]; 103 % of control (dose: 200.0 mg/kg/injection, schedule: Q04DX003 (ip), vehicle: Klucel (hydroxypropylcellulose) (HPC)); 103 % of control (dose: 400.0 mg/kg/injection, schedule: Q04DX003 (ip), vehicle: Klucel (hydroxypropylcellulose) (HPC)).
As for `CS(=O)(=O)OCC(O)C(O)COS(C)(=O)=O` (stereo not drawn), the T/C under setting [9] is 100 % of control; the T/C under setting [10] is 102 % of control; the T/C under setting [11] is 103 % of control and 114 % of control; the T/C (dose: 800.0 mg/kg/injection, schedule: Q01DX009 (ip), vehicle: saline with Tween-80) was 153 % of control.
For `CC(N)CCC(C)(C)O` (stereo not drawn), the T/C runs as follows: (dose: 25.0 mg/kg/injection, schedule: Q01DX009 (ip), vehicle: saline with Tween-80) 102 % of control; under setting [9], 105 % of control; under setting [10], 107 % of control.
